Laboratory results from US7556957B2, “Coronavirus-like particles comprising functionally deleted genomes” (Stichting voor de Technische Wetenschappen, priority 2001, dated 2009).
Where no end group is shown, it is not given here.

Key:
[1] = test system: MHV-EFLM infection of LR7 cells; test: Virus-cell entry inhibition assay with luciferase-expressing MHV-EFLM; type: cell-based, mouse hepatitis virus (MHV) strain A59; conditions: peptide concentration 50 μM
Description: FIG. 11: Inhibition of MHV infection by the HR2 peptide. LR7 cells were inoculated with the virus MHV-EFLM in the presence of different concentrations of HR2 peptide or, as a control, a peptide corresponding to amino acids 1003-1048 of the viral S protein. After one hour of inoculation, cells were washed and incubated further in the absence of peptide. To evaluate the success of the infection, cells were analyzed at 4 hours post-infection for luciferase expression. In the figure luciferase activity is plotted against the different peptide concentrations used.
(§1) The potency of the HR2 peptide in inhibiting viral infection was determined using the recombinant MHV-EFLM expressing the firefly luciferase. Confluent monolayers of LR7 cells in 96-well plates were inoculated at 37° C. in DMEM at a multiplicity of infection of 5 for 1 hour in the presence of varying concentrations of peptide ranging from 0.4-50 μM. After 1 hour, cells were washed with DMEM and medium was replaced by peptide-free DMEM. At 5 hours post-infection cells were lysed for 15 minutes at RT in 50 μl Lysis buffer, according to the manufacturer's protocol (Luciferase Assay System, Promega). Upon mixing of 10 μl cell lysate with 40 μl substrate, luciferase activity was measured immediately using a Wallace Betaluminometer. […]

[2] = test system: MHV-A59 spike mediated cell-cell fusion in LR7 cells; test: Cell-cell fusion inhibition plaque assay; type: cell-based, mouse hepatitis virus (MHV) strain A59
Description: FIG. 12: Inhibition of cell-cell fusion by HR2 peptide. After inoculation of parallel cultures of LR7, cells with MHV-A59 cells were overlaid with agar medium containing different concentrations of HR2 peptide and plaques were counted the following day.
as §1

## GPIEGRDLSLDFEKLNVTLLDLTYEMNRIQDAIKKLNESYINLKE [HR2 peptide]
[1]
  inhibition of viral infection (entry): inhibited virtually completely
[2]; 0.08 μM HR2 peptide in agar overlay
  formation of plaques (cell-cell fusion): only tiny plaques
[2]; HR2 peptide in agar overlay at concentrations of up to 0.4 μM
  formation of plaques (cell-cell fusion): completely abolished
